Data from PubChem BioAssay AID1918998 (Molecular Pharmacology Branch, DTP, NCI, 2023).

Test system: 521955-158-R2-J5-PDC complex spheroid growth
Assay: Anticancer human tumor 521955-158-R2-J5-PDC patient-derived pancreatic carcinoma cell line growth inhibition [AhR]
Details: for IC50: curve of first compound; for viability, T/C: stronger effect = lower value
In short: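 Agents were dosed in half-log steps down from roughly clinical Cmax, or from 10 microM where Cmax was unknown, alone and with AhR antagonists. Read-out: percent test/control growth of tumor spheroids containing HUVEC and MSC stromal cells.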

[1] = second compound 0.1 µM, first compound 0.0316 µM
[2] = second compound 0.1 µM, first compound 0.1 µM
[3] = second compound 0.1 µM, first compound 0.316 µM
[4] = second compound 0.1 µM, first compound 1 µM
[5] = second compound 0.1 µM, first compound 3.16 µM
[6] = second compound 0.1 µM, first compound 10 µM
[7] = second compound 0.316 µM, first compound 0.0316 µM
[8] = second compound 0.316 µM, first compound 0.1 µM
[9] = second compound 0.316 µM, first compound 0.316 µM
[10] = second compound 0.316 µM, first compound 1 µM
[11] = second compound 0.316 µM, first compound 3.16 µM
[12] = second compound 0.316 µM, first compound 10 µM
[13] = second compound 1 µM, first compound 0.0316 µM
[14] = second compound 1 µM, first compound 0.1 µM
[15] = second compound 1 µM, first compound 0.316 µM
[16] = second compound 1 µM, first compound 1 µM
[17] = second compound 1 µM, first compound 3.16 µM
[18] = second compound 1 µM, first compound 10 µM
[19] = second compound 3.16 µM, first compound 0.0316 µM
[20] = second compound 3.16 µM, first compound 0.1 µM
[21] = second compound 3.16 µM, first compound 0.316 µM
[22] = second compound 3.16 µM, first compound 1 µM
[23] = second compound 3.16 µM, first compound 3.16 µM
[24] = second compound 3.16 µM, first compound 10 µM
[25] = second compound 10 µM, first compound 0.0316 µM
[26] = second compound 10 µM, first compound 0.1 µM
[27] = second compound 10 µM, first compound 0.316 µM
[28] = second compound 10 µM, first compound 1 µM
[29] = second compound 10 µM, first compound 3.16 µM
[30] = second compound 10 µM, first compound 10 µM
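Wherever viability, T/C is given: spheroids mix tumor cells with HUVEC endothelium and human MSC stroma; luminescence taken as viability surrogate after a week of drug exposure.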

SMILES | IC50 (second compound 0.1 µM) | IC50 (second compound 0.316 µM) | IC50 (second compound 1 µM) | IC50 (second compound 3.16 µM) | IC50 (second compound 10 µM) | viability, T/C [1] | viability, T/C [2] | viability, T/C [3] | viability, T/C [4] | viability, T/C [5] | viability, T/C [6] | viability, T/C [7] | viability, T/C [8] | viability, T/C [9] | viability, T/C [13] | viability, T/C [14] | viability, T/C [19] | viability, T/C [20] | viability, T/C [25] | viability, T/C [26] | further results
COc1cc(Nc2ncc3c(n2)-c2ccc(Cl)cc2C(c2c(F)cccc2OC)=NC3)ccc1C(=O)O + CC(CO)NC(=O)c1cc(-c2ccc(Cl)cc2)nn(-c2cnn(C)c2)c1=O | > 10000 nM | > 10000 nM | > 10000 nM | 2660 nM | 1180 nM | 99.5% | 78.4% | 68.2% | 61.9% | 65.3% | 50% | 91.3% | 74.6% | 71.9% | 59.5% | 64.9% | 84.3% | 69.5% | 62.2% | 49.3% | viability, T/C [10]: 76.5%; viability, T/C [11]: 55%; viability, T/C [12]: 50.6%; viability, T/C [15]: 69.2%; viability, T/C [16]: 63.6%; viability, T/C [17]: 48.6%; viability, T/C [18]: 72.8%; viability, T/C [21]: 48%; viability, T/C [22]: 65.4%; viability, T/C [23]: 47.7%; viability, T/C [24]: 44.9%; viability, T/C [27]: 62.4%; viability, T/C [28]: 51.8%; viability, T/C [29]: 37.6%; viability, T/C [30]: 35%
Cn1ncnc1C1c2n[nH]c(=O)c3cc(F)cc(c23)NC1c1ccc(F)cc1 (stereo not given) + CC(CO)NC(=O)c1cc(-c2ccc(Cl)cc2)nn(-c2cnn(C)c2)c1=O | > 100 nM | > 100 nM | > 100 nM | > 100 nM | > 100 nM | 105% | 83% | – | – | – | – | 74.1% | 103% | – | 106% | 100% | 86.1% | 78.5% | 60.1% | 77.8% | viability, T/C (second compound 0.1 µM, first compound 0.000316 µM): 99.2%; viability, T/C (second compound 0.1 µM, first compound 0.001 µM): 112%; viability, T/C (second compound 0.1 µM, first compound 0.00316 µM): 116%; viability, T/C (second compound 0.1 µM, first compound 0.01 µM): 108%; viability, T/C (second compound 0.316 µM, first compound 0.000316 µM): 117%; viability, T/C (second compound 0.316 µM, first compound 0.001 µM): 107%; viability, T/C (second compound 0.316 µM, first compound 0.00316 µM): 120%; viability, T/C (second compound 0.316 µM, first compound 0.01 µM): 119%; viability, T/C (second compound 1 µM, first compound 0.000316 µM): 103%; viability, T/C (second compound 1 µM, first compound 0.001 µM): 134%; viability, T/C (second compound 1 µM, first compound 0.00316 µM): 112%; viability, T/C (second compound 1 µM, first compound 0.01 µM): 114%; viability, T/C (second compound 3.16 µM, first compound 0.000316 µM): 118%; viability, T/C (second compound 3.16 µM, first compound 0.001 µM): 121%; viability, T/C (second compound 3.16 µM, first compound 0.00316 µM): 86.1%; viability, T/C (second compound 3.16 µM, first compound 0.01 µM): 89.3%; viability, T/C (second compound 10 µM, first compound 0.000316 µM): 104%; viability, T/C (second compound 10 µM, first compound 0.001 µM): 100%; viability, T/C (second compound 10 µM, first compound 0.00316 µM): 99.7%; viability, T/C (second compound 10 µM, first compound 0.01 µM): 82.6%
NS(=O)(=O)OCC1CC(n2ccc3c(NC4CCc5ccccc54)ncnc32)CC1O (stereo not given) + CC(CO)NC(=O)c1cc(-c2ccc(Cl)cc2)nn(-c2cnn(C)c2)c1=O | 486 nM | 484 nM | 492 nM | 371 nM | 232 nM | 87.2% | 92.5% | 61.7% | 29.5% | 20.6% | 18.7% | 93.1% | 90.2% | 61.1% | 90.5% | 97.7% | 85.5% | 83.1% | 68.8% | 66% | viability, T/C [10]: 30.5%; viability, T/C [11]: 19.5%; viability, T/C [12]: 18.3%; viability, T/C [15]: 62%; viability, T/C [16]: 31%; viability, T/C [17]: 21.6%; viability, T/C [18]: 20.7%; viability, T/C [21]: 49.8%; viability, T/C [22]: 31.3%; viability, T/C [23]: 20.8%; viability, T/C [24]: 14.7%; viability, T/C [27]: 41.6%; viability, T/C [28]: 31.2%; viability, T/C [29]: 19.2%; viability, T/C [30]: 15.2%
